Patent US5175163A, “Triazolyl thioamide derivates” (Egis Gyogyszergyar, priority 1989, dated 1992)
Where two headings read alike, the source gives them in different places.

Experiments:
[1] = in vivo
[2] = tested on: reserpine ptosis on mice; assay: Antagonism of reserpine ptosis on mice; details: for ED50: Mus musculus, sc; for Therapeutical index: reserpine ptosis, mice, Table II
Procedure: Groups consisting of 10 mice each were treated with 6 mg/kg of reserpine, subcutaneously, according to the method of Hoffmeister et. al. [Arzneim. […] The animals with ptosis were counted 60 and 120 minutes after the administration of the compounds to be tested. Evaluation was carried out as given under the above test.

[3] = tested on: Hexobarbital narcosis; assay: Hexobarbital narcosis potentiating effect; details: for ED50: Mus musculus, po, 1 h; for Therapeutical index: hexobarbital narcosis, white mice, Table V
Procedure: Groups consisting of six mice were used for each dose. The test compound was administered orally and one hour after this treatment narcosis was induced by means of a 40 mg/kg i.v. dose of hexobarbital. The control group received carrier instead of the test compound.
The ED50 values thus transformed were calculated.

[4] = tested on: pentetrazole spasm; assay: Inhibition of pentetrazole spasm; assay type: in vivo; details: white mice; for ED50: Mus musculus, po, 1 h, orally, one hour before pentetrazole 125 mg/kg intraperitoneally, tonic extensoric spasms of the hind limbs; for Therapeutical index: pentetrazole spasm, Table III
[5] = tested on: nicotine spasm and lethality; assay: Inhibition of nicotine spasm and lethality; assay type: in vivo; details: for ED50: po, 1 h, orally, an hour before nicotine 1.4 mg/kg i.v., spasms and lethality within an hour
Procedure: The test was carried out according to the method of Stone. [Arch. Int. Pharmacodyn.

[6] = Table III (pentetrazole spasm)
[7] = tested on: tetrabenazine ptosis on mice; assay: Antagonism of tetrabenazine ptosis on mice; details: Mus musculus, po
Procedure: (§1) Groups consisting of 10-20 mice each were treated perorally, with different doses of the compounds to be tested. The control group was treated only with the corresponding carrier. After 30 minutes tetrabenazine [3-isobutyl-9,10-dimethoxy-1,2,3,4,6,7-hexahydrobenzo[a]-quinolizine-2-one] was administered intraperitoneally at a dosage of 50 mg/kg. The number of animals having closed palpebral fissure was determined in each group after 30, 60, 90 and 120 minutes, resp.
(§2) The mean value of ptosis was calculated in each group, and the deviation from that of the control group (i.e. the inhibition) was expressed in percentage.

[8] = tested on: tetrabenazine ptosis on mice; details: mouse, in vivo, po
Procedure: as §1, §2

CN(C)CCC=C1c2ccccc2CCc2ccccc21 [Amitryptiline, reference compound]
LD50 [1]: 225 mg/kg
ED50 [2]: 65 mg/kg
Therapeutical index [2]: 3.5

Nc1nc(N2CCOCC2)nn1C(=S)NCCCOc1cccc(CN2CCCCC2)c1 [Example 1, 1-(5-Amino-3-morpholino-1H-1,2,4-triazol-1-yl)-N-{3-[3-(1-piperidinylmethyl)phenoxyl]propyl}carbothioamide]
ED50 [3]: 50 mg/kg
Therapeutical index [3]: > 40
ED50 [4]: 295 mg/kg
Therapeutical index [4]: > 7
Therapeutical index ([5]; nicotine spasm and lethality, Table IV): > 29
ED50 [5]: 68 mg/kg
LD50 [1]: > 2000 mg/kg
ED50 [2]: 17 mg/kg
Therapeutical index [2]: > 117

CN(C)c1nc(N)n(C(=S)NCCCOc2cccc(CN3CCCCC3)c2)n1 [Example 2, 1-[5-Amino-3-dimethylamino-1H-1,2,4-triazol-1-yl]-N-{3-[3-(1-piperidinylmethyl)phenoxy]propyl}carbothioamide]
LD50 [6]: > 1000 mg/kg
ED50 [3]: 110 mg/kg
Therapeutical index [3]: > 9
ED50 [4]: 64 mg/kg
Therapeutical index [4]: > 15
LD50 [1]: > 1000 mg/kg

CN1CCN(c2nc(N)n(C(=S)NCCCOc3cccc(CN4CCCCC4)c3)n2)CC1 [Example 3, 1-[5-Amino-3-(4-methylpiperazinyl)-1H-1,2,4-triazol-1-yl]-N-{3-[3-(1-piperidinylmethyl)phenoxy]propyl}carbothioamide]
ED50 [7]: 11 mg/kg
Therapeutical index [8]: > 90
LD50 [1]: > 1000 mg/kg

C=CCN(CC=C)c1nc(N)n(C(=S)NCCCOc2cccc(CN3CCCCC3)c2)n1 [Example 5, 1-[5-Amino-3-diallylamino-1H-1,2,4-triazol-1-yl]-N-{3-[3-(1-piperidinylmethyl)phenoxy]propyl}carbothioamide]
ED50 [3]: 200 mg/kg
Therapeutical index [3]: > 5
LD50 [1]: > 1000 mg/kg

COc1ccc(CCNC(=S)n2nc(SC)nc2N)cc1OC [Example 6, 1-[5-Amino-3-methylthio-1H-1,2,4-triazol-1-yl]-N-[2-(3,4-dimethoxyphenyl)ethyl]carbothioamide]
LD50 [1]: > 2000 mg/kg
ED50 [2]: 20 mg/kg
Therapeutical index [2]: > 100

CCCC(C)(COC(N)=O)COC(N)=O [Meprobamate, reference compound]
Therapeutical index [3]: 4.1
LD50 [1]: 1100 mg/kg

OC(CCN1CCCCC1)(c1ccccc1)C1CCCCC1 (stereo not shown) [Trihexyphenidyl, reference compound]
ED50 [5]: 20 mg/kg

CN1C(=O)OC(C)(C)C1=O [Trimethadion, reference compound]
LD50 [6]: 2050 mg/kg
